Data from patent publication US20240308968A1, “FUNGICIDAL SUBSTITUTED HETEROCYCLES” (FMC Corporation, priority 2021, published 2024).

Key:
[1] = tested on: Botrytis cinerea; assay: Test E: preventive spray on tomato seedlings, tomato Botrytis disease rating; assay type: in vivo; details: 100 = 100% disease control, 0 = no control; for pest or weed control at 50 ppm / Test E disease control rating: 50 ppm
Outline: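 Tomato seedlings sprayed to run-off with compound suspended in acetone/water with PEG400 surfactant, then inoculated next day with Botrytis cinerea spores. Held 48 h saturated at 20 °C, then 3 days at 24 °C; disease rated visually, 0 to 100% control relative to controls.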

[2] = tested on: Blumeria graminis f. sp. Tritici; assay: Test C: preventive spray on wheat seedlings, wheat powdery mildew disease rating; assay type: in vivo; details: 100 = 100% disease control, 0 = no control; for pest or weed control at 50 ppm / Test C disease control rating: 50 ppm
Outline: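 Wheat seedlings sprayed to run-off with test suspension (acetone 3% dissolution, then acetone/water 50/50 with 50–250 ppm PEG400), inoculated next day with Blumeria graminis spore dust. Held 8 days at 20° C in growth chamber, then visually rated (100 = full control, 0 = none, relative to controls).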

[3] = tested on: Phakopsora pachyrhizi; assay: Test D: preventive spray on soybean seedlings, Asian soybean rust disease rating; assay type: in vivo; details: 100 = 100% disease control, 0 = no control; for pest or weed control at 50 ppm / Test D disease control rating: 50 ppm
Outline: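 Compounds in acetone/water (50/50) with 50–250 ppm PEG400 sprayed to run-off on soybean seedlings; inoculated next day with P. pachyrhizi spores, held 24 h saturated at 22° C, then 8 days at 22° C before visual disease rating.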

[4] = tested on: Zymoseptoria tritici; assay: Test A: preventive spray on wheat seedlings, wheat leaf blotch disease rating; assay type: in vivo; details: 100 = 100% disease control, 0 = no control; for pest or weed control at 50 ppm / Test A disease control rating: 50 ppm
Outline: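 Compounds in acetone/water (50/50) with 50–250 ppm PEG400, sprayed to run-off on wheat seedlings. Inoculated next day with Z. tritici spores, 48 h saturated atmosphere at 24 °C, then 17 days at 20 °C before disease rating.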

[5] = tested on: Puccinia recondita f. sp. Tritici; assay: Test B: preventive spray on wheat seedlings, wheat leaf rust disease rating; assay type: in vivo; details: 100 = 100% disease control, 0 = no control; for pest or weed control at 50 ppm / Test B disease control rating: 50 ppm
Outline: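 Compounds in acetone/water (50/50) with 50-250 ppm PEG400 sprayed to run-off on wheat seedlings; inoculated with P. recondita spores next day. Held 24 h saturated at 20° C., then 7 days in growth chamber at 20° C. before rating; 100 = full control, 0 = none versus controls.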

[6] = tested on: Alternaria solani; assay: Test F: preventive spray on tomato seedlings, tomato early blight disease rating; assay type: in vivo; details: 100 = 100% disease control, 0 = no control; for pest or weed control at 50 ppm / Test F disease control rating: 50 ppm
Outline: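 Tomato seedlings were sprayed to run-off with compound suspensions in ppm (acetone/water with PEG400 surfactant) and inoculated with Alternaria solani spores the next day. Plants were held 48 h saturated at 27 °C, then 3 days at 20 °C. Disease was rated visually, with 100 as full control and 0 as none, relative to controls.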

Row | Structure (SMILES) | pest or weed control at 50 ppm ([1]; Botrytis cinerea, 120 h) [%] | pest or weed control at 50 ppm ([2]; Blumeria graminis, 192 h) [%] | pest or weed control at 50 ppm ([3]; Phakopsora pachyrhizi, 216 h) [%] | melting point [°C] | pest or weed control at 50 ppm ([4]; Zymoseptoria tritici, 456 h) [%] | pest or weed control at 50 ppm ([5]; Puccinia recondita, 192 h) [%] | pest or weed control at 50 ppm ([6]; Alternaria solani, 120 h) [%] | Test E disease control rating [1] [%] | Test C disease control rating [2] [%] | Test D disease control rating [3] [%] | Test A disease control rating [4] [%] | Test B disease control rating [5] [%] | Test F disease control rating [6] [%] | further results
1 | COc1cc(OC)cc(-n2nc(C)c(=O)c(C)c2-c2ccc(F)cc2Cl)c1 [Compound 97, 6-(2-chloro-4-fluorophenyl)-3,5-dimethyl-1-(3,5-dimethoxyphenyl)-4(1H)-pyridazinone] | 96 | 99 | 100 | 148 to 151 | 100 | 100 | 100 | – | – | – | – | – | – | –
2 | COc1ccc(Cl)c(-c2cc(C)nc(C)c2-c2ccc(F)cc2Cl)c1 [Compound 138, 3-(2-chloro-4-fluorophenyl)-4-(2-chloro-5-methoxyphenyl)-2,6-dimethylpyridine] | – | – | – | 106 to 108 | – | – | – | – | – | – | – | – | – | –
3 | CCn1c(-c2ccc(F)cc2Cl)c(-c2cc(OC)cc(OC)c2Cl)cc(C#N)c1=O [Compound 157, 5-(2-chloro-3,5-dimethoxyphenyl)-6-(2-chloro-4-fluorophenyl)-1,2-dihydro-1-ethyl-2-oxo-3-pyridinecarbonitrile] | 99 | 96 | 97 | 100 to 103 | 100 | 100 | 98 | – | – | – | – | – | – | –
4 | COc1cc(OC)c(Cl)c(-c2cc(C#N)c(=O)n(C)c2-c2ccc(F)cc2Cl)c1 [Compound 156, 5-(2-chloro-3,5-dimethoxyphenyl)-6-(2-chloro-4-fluorophenyl)-1,2-dihydro-1-methyl-2-oxo-3-pyridinecarbonitrile] | 98 | 98 | 99 | 209 to 211 | 100 | 100 | 91 | – | – | – | – | – | – | –
5 | COc1cc(OC)c(Cl)c(-n2nc(Cl)c(=O)c(C)c2-c2ccc(F)cc2Cl)c1 [Compound 92, 3-chloro-6-(2-chloro-4-fluorophenyl)-1-(2-chloro-3,5-dimethoxyphenyl)-5-methyl-4(1H)-pyridazinone] | 96 | 99 | 100 | 192 to 195 | 100 | 100 | 99 | – | – | – | – | – | – | –
6 | COc1cc(OC)c(Cl)c(-c2noc(=O)c(C)c2-c2ccc(F)cc2Cl)c1 [Compound 64, 3-(2-chloro-3,5-dimethoxyphenyl)-4-(2-chloro-4-fluorophenyl)-5-methyl-6H-1,2-oxazin-6-one] | 91 | 98 | 99 | 161 to 164 | 97 | 100 | 99 | – | – | – | – | – | – | –
7 | COc1cc(OC)cc(-c2cc(C#N)c(=O)n(C)c2-c2c(F)cc(F)cc2F)c1 [Compound 67, 1,2-dihydro-5-(3,5-dimethoxyphenyl)-1-methyl-2-oxo-6-(2,4,6-trifluorophenyl)-3-pyridinecarbonitrile] | 98 | 84 | 92 | 180 to 183 | 100 | 100 | 98 | – | – | – | – | – | – | –
8 | COc1cc(OC)cc(-c2c(-c3ccc(F)cc3F)noc(=O)c2C)c1 [Compound 61] | – | – | – | – | – | – | – | 83 | 0 | 0 | 63 | 55 | 0 | –
9 | CCn1c(-c2ccc(F)cc2Cl)c(-c2cc(OC)cc(OC)c2)cc(C#N)c1=O [Compound 155] | – | – | – | – | – | – | – | 92 | 0 | 0 | 8 | 89 | 0 | –
10 | COc1ccc(Cl)c(-n2nc(C)c(=O)c(Cl)c2-c2ccc(F)cc2Cl)c1 [Compound 123, 5-chloro-1-(2-chloro-5-methoxyphenyl)-6-(2-chloro-4-fluorophenyl)-3-methyl-4(1)-pyridazinone] | – | – | – | – | – | – | – | 99 | 100 | 100 | 100 | 100 | 100 | –
11 | COc1ccc(Cl)c(-n2nc(Br)c(=O)cc2-c2ccc(F)cc2Cl)c1 [Compound 136] | – | – | – | – | – | – | – | 99 | 68 | 0 | 82 | 99 | 0 | –
12 | CCc1nc(C)nc(-c2cc(OC)cc(OC)c2Cl)c1-c1ccc(F)cc1Cl [Compound 56, 4-(2-chloro-3,5-dimethoxyphenyl)-5-(2-chloro-4-fluorophenyl)-6-ethyl-2-methylpyrimidine] | 94 | 100 | 88 | – | 100 | 100 | 91 | – | – | – | – | – | – | –
13 | Cc1cnn(-c2nn(C)c(=O)c(C)c2-c2ccccc2Cl)c1 [Compound 12] | – | – | – | – | – | – | – | 0 | 0 | 17 | 0 | 0 | 15 | –
14 | CCc1nc(C)nc(-c2cc(OC)cc(OC)c2Cl)c1-c1c(F)cccc1F [Compound 57, 4-(2-chloro-3,5-dimethoxyphenyl)-5-(2,6-difluorophenyl)-6-ethyl-2-methylpyrimidine] | 96 | 100 | 73 | – | 100 | 100 | 97 | – | – | – | – | – | – | –
15 | COc1ccc(-c2c(Br)c(=O)c(C)nn2-c2cc(OC)ccc2Cl)c(Cl)c1 [Compound 130] | – | – | – | – | – | – | – | 99 | 99 | 98 | 100 | 100 | 100 | –
16 | Cc1sccc1-c1nn(C)c(=O)c(C)c1-c1ccc(F)cc1Cl [Compound 8] | – | – | – | – | – | – | – | 94 | 99 | 96 | 99 | 100 | 99 | –
17 | COc1cc(OC)c(Cl)c(-c2nc(Cl)nc(C)c2-c2ccc(F)cc2Cl)c1 [Compound 49, 2-chloro-4-(2-chloro-3,5-dimethoxyphenyl)-5-(2-chloro-4-fluorophenyl)-6-methylpyrimidine] | – | – | – | – | – | – | – | – | – | – | – | – | – | pest or weed control at 250 ppm ([1]; Botrytis cinerea, 120 h, 250 ppm): 96%; pest or weed control at 250 ppm ([2]; Blumeria graminis, 192 h, 250 ppm): 100%; pest or weed control at 250 ppm ([3]; Phakopsora pachyrhizi, 216 h, 250 ppm): 100%; pest or weed control at 250 ppm ([4]; Zymoseptoria tritici, 456 h, 250 ppm): 100%; pest or weed control at 250 ppm ([5]; Puccinia recondita, 192 h, 250 ppm): 100%; pest or weed control at 250 ppm ([6]; Alternaria solani, 120 h, 250 ppm): 100%
18 | COc1cc(OC)c(Cl)c(-n2nc(C#N)c(=O)c(C)c2-c2ccc(F)cc2Cl)c1 [Compound 83] | – | – | – | – | – | – | – | 94 | 98 | 100 | 99 | 100 | 100 | –
19 | COc1cc(OC)c(Cl)c(-c2c(-c3ccc(F)cc3F)noc(=O)c2C)c1 [Compound 62] | – | – | – | – | – | – | – | 97 | 76 | 87 | 100 | 99 | 0 | –
